Data as given in ChEMBL document CHEMBL4819100, “Antibacterial and synergistic activity of 6β-hydroxy-3-oxolup-20(29)-en-28-oic acid (6β-hydroxy betunolic acid) isolated from Schumacheria castaneifolia vahl” (2021).
Converted amounts (≈) assume the structure as drawn.

Assays:
Format in all cases: functional
Staphylococcus aureus [1] = test: Antibacterial activity against methicillin-resistant Staphylococcus aureus 59 assessed as reduction in bacterial growth incubated for 24 hrs by CLSI based serial dilution method
Enterococcus faecalis = test: Antibacterial activity against Enterococcus faecalis ATCC 29212 assessed as reduction in bacterial growth incubated for 24 hrs by CLSI based serial dilution method
Staphylococcus aureus [2] = test: Antibacterial activity against methicillin-resistant Staphylococcus aureus 124 assessed as reduction in bacterial growth incubated for 24 hrs by CLSI based serial dilution method
Staphylococcus aureus [3] = test: Antibacterial activity against methicillin-resistant Staphylococcus aureus 114 assessed as reduction in bacterial growth incubated for 24 hrs by CLSI based serial dilution method
Staphylococcus aureus [4] = test: Antibacterial activity against methicillin-resistant Staphylococcus aureus 58 assessed as reduction in bacterial growth incubated for 24 hrs by CLSI based serial dilution method
Staphylococcus aureus [5] = test: Antibacterial activity against Staphylococcus aureus ATCC 29213 assessed as reduction in bacterial growth incubated for 24 hrs by CLSI based serial dilution method
Escherichia coli [6] = test: Antibacterial activity against Escherichia coli ATCC 25922 assessed as reduction in bacterial growth incubated for 24 hrs by CLSI based serial dilution method
Staphylococcus aureus [7] = test: Antibacterial activity against methicillin-resistant Staphylococcus aureus 59 assessed as fractional inhibitory concentration incubated for 24 hrs in presence of oxacillin by CLSI based serial dilution method
Staphylococcus aureus [8] = test: Antibacterial activity against Staphylococcus aureus assessed as fractional inhibitory concentration index incubated for 24 hrs in presence of oxacillin by CLSI based serial dilution method
Acinetobacter [9] = test: Antibacterial activity against Acinetobacter sp. 103 assessed as reduction in bacterial growth incubated for 24 hrs by CLSI based serial dilution method
Staphylococcus aureus [10] = test: Antibacterial activity against methicillin-resistant Staphylococcus aureus 124 assessed as reduction in bacterial growth incubated for 24 hrs in presence of oxacillin by CLSI based serial dilution method
Staphylococcus aureus [11] = test: Antibacterial activity against methicillin-resistant Staphylococcus aureus 58 assessed as reduction in bacterial growth incubated for 24 hrs in presence of oxacillin by CLSI based serial dilution method
Staphylococcus aureus [12] = test: Antibacterial activity against methicillin-resistant Staphylococcus aureus 59 assessed as fractional inhibitory concentration index incubated for 24 hrs in presence of oxacillin by CLSI based serial dilution method
Staphylococcus aureus [13] = test: Antibacterial activity against methicillin-resistant Staphylococcus aureus 114 assessed as fractional inhibitory concentration index incubated for 24 hrs in presence of oxacillin by CLSI based serial dilution method
Staphylococcus aureus [14] = test: Antibacterial activity against methicillin-resistant Staphylococcus aureus 59 assessed as reduction in bacterial growth incubated for 24 hrs in presence of oxacillin by CLSI based serial dilution method
Acinetobacter [15] = test: Antibacterial activity against Acinetobacter sp. 122 assessed as reduction in bacterial growth incubated for 24 hrs by CLSI based serial dilution method
Staphylococcus aureus [16] = test: Antibacterial activity against methicillin-resistant Staphylococcus aureus 114 assessed as fractional inhibitory concentration incubated for 24 hrs in presence of oxacillin by CLSI based serial dilution method
Staphylococcus aureus [17] = test: Antibacterial activity against methicillin-resistant Staphylococcus aureus 58 assessed as fractional inhibitory concentration index incubated for 24 hrs in presence of oxacillin by CLSI based serial dilution method
Staphylococcus aureus [18] = test: Antibacterial activity against Staphylococcus aureus ATCC 25923 assessed as reduction in bacterial growth incubated for 24 hrs by CLSI based serial dilution method
Staphylococcus aureus [19] = test: Antibacterial activity against Staphylococcus aureus assessed as fractional inhibitory concentration incubated for 24 hrs in presence of oxacillin by CLSI based serial dilution method
Staphylococcus aureus [20] = test: Antibacterial activity against methicillin-resistant Staphylococcus aureus 124 assessed as fractional inhibitory concentration index incubated for 24 hrs in presence of oxacillin by CLSI based serial dilution method
Pseudomonas aeruginosa = test: Antibacterial activity against Pseudomonas aeruginosa ATCC 27853 assessed as reduction in bacterial growth incubated for 24 hrs by CLSI based serial dilution method
Escherichia coli [21] = test: Antibacterial activity against Escherichia coli ATCC 35218 assessed as reduction in bacterial growth incubated for 24 hrs by CLSI based serial dilution method
Staphylococcus aureus [22] = test: Antibacterial activity against methicillin-resistant Staphylococcus aureus 124 assessed as fractional inhibitory concentration incubated for 24 hrs in presence of oxacillin by CLSI based serial dilution method
Klebsiella pneumoniae [23] = test: Antibacterial activity against Klebsiella pneumoniae ATCC BAA-1705 assessed as reduction in bacterial growth incubated for 24 hrs by CLSI based serial dilution method
Acinetobacter [24] = test: Antibacterial activity against Acinetobacter sp. 121 assessed as reduction in bacterial growth incubated for 24 hrs by CLSI based serial dilution method
Staphylococcus aureus [25] = test: Antibacterial activity against Staphylococcus aureus assessed as reduction in bacterial growth incubated for 24 hrs in presence of oxacillin by CLSI based serial dilution method
Klebsiella pneumoniae [26] = test: Antibacterial activity against Klebsiella pneumoniae ATCC BAA-1706 assessed as reduction in bacterial growth incubated for 24 hrs by CLSI based serial dilution method
Acinetobacter [27] = test: Antibacterial activity against Acinetobacter sp. 126 assessed as reduction in bacterial growth incubated for 24 hrs by CLSI based serial dilution method
Staphylococcus aureus [28] = test: Antibacterial activity against methicillin-resistant Staphylococcus aureus 58 assessed as fractional inhibitory concentration incubated for 24 hrs in presence of oxacillin by CLSI based serial dilution method
Staphylococcus aureus [29] = test: Antibacterial activity against methicillin-resistant Staphylococcus aureus 114 assessed as reduction in bacterial growth incubated for 24 hrs in presence of oxacillin by CLSI based serial dilution method

Cc1onc(-c2ccccc2)c1C(=O)N[C@@H]1C(=O)N2[C@@H]1SC(C)(C)[C@@H]2C(=O)O [OXACILLIN]
MIC (Staphylococcus aureus [1]): 16 µg/mL (≈ 39.9 µM)
MIC (Enterococcus faecalis): 8 µg/mL (≈ 19.9 µM)
MIC (Staphylococcus aureus [2]): 16 µg/mL (≈ 39.9 µM)
MIC (Staphylococcus aureus [3]): 16 µg/mL (≈ 39.9 µM)
MIC (Staphylococcus aureus [4]): 16 µg/mL (≈ 39.9 µM)
MIC (Staphylococcus aureus [5]): 0.12 µg/mL (≈ 0.299 µM)

C=C(C)[C@@H]1CC[C@]2(C(=O)O)CC[C@]3(C)[C@H](CC[C@@H]4[C@@]5(C)CCC(=O)C(C)(C)[C@@H]5[C@H](O)C[C@]43C)[C@@H]12
MIC (Staphylococcus aureus [1]): 16 µg/mL (≈ 34 µM)
MIC (Escherichia coli [6]): > 1020 µg/mL
FIC (Staphylococcus aureus [7]): 0.5
MIC (Enterococcus faecalis): 32 µg/mL (≈ 68 µM)
fractional inhibitory concentration index (FICI) (Staphylococcus aureus [8]): 0.49
MIC (Acinetobacter [9]): > 1020 µg/mL
MIC (Staphylococcus aureus [10]): 32 µg/mL
MIC (Staphylococcus aureus [11]): 16 µg/mL
fractional inhibitory concentration index (FICI) (Staphylococcus aureus [12]): 0.75
fractional inhibitory concentration index (FICI) (Staphylococcus aureus [13]): 0.53
MIC (Staphylococcus aureus [14]): 8 µg/mL
MIC (Acinetobacter [15]): > 1020 µg/mL
FIC (Staphylococcus aureus [16]): 0.5
MIC (Staphylococcus aureus [2]): 32 µg/mL (≈ 68 µM)
fractional inhibitory concentration index (FICI) (Staphylococcus aureus [17]): 1
MIC (Staphylococcus aureus [18]): 16 µg/mL (≈ 34 µM)
FIC (Staphylococcus aureus [19]): 0.25
fractional inhibitory concentration index (FICI) (Staphylococcus aureus [20]): 2
MIC (Pseudomonas aeruginosa): > 1020 µg/mL
MIC (Escherichia coli [21]): > 1020 µg/mL
MIC (Staphylococcus aureus [3]): 32 µg/mL (≈ 68 µM)
FIC (Staphylococcus aureus [22]): 1
MIC (Klebsiella pneumoniae [23]): > 1020 µg/mL
MIC (Acinetobacter [24]): > 1020 µg/mL
MIC (Staphylococcus aureus [25]): 8 µg/mL
MIC (Klebsiella pneumoniae [26]): > 1020 µg/mL
MIC (Acinetobacter [27]): > 1020 µg/mL
MIC (Staphylococcus aureus [4]): 32 µg/mL (≈ 68 µM)
FIC (Staphylococcus aureus [28]): 0.5
MIC (Staphylococcus aureus [5]): 32 µg/mL (≈ 68 µM)
MIC (Staphylococcus aureus [29]): 16 µg/mL

C[C@@H](O)[C@H]1C(=O)N2C(C(=O)O)=C(S[C@@H]3CN[C@H](C(=O)N(C)C)C3)[C@H](C)[C@H]12 [MEROPENEM]
MIC (Escherichia coli [6]): 0.008 µg/mL (≈ 0.0209 µM)
MIC (Acinetobacter [9]): 64 µg/mL (≈ 167 µM)
MIC (Acinetobacter [15]): 128 µg/mL (≈ 334 µM)
MIC (Pseudomonas aeruginosa): 0.12 µg/mL (≈ 0.313 µM)
MIC (Escherichia coli [21]): 0.008 µg/mL (≈ 0.0209 µM)
MIC (Klebsiella pneumoniae [23]): 8 µg/mL (≈ 20.9 µM)
MIC (Acinetobacter [24]): 64 µg/mL (≈ 167 µM)
MIC (Acinetobacter [27]): 128 µg/mL (≈ 334 µM)
